Data taken from US8133913B2, “Substituted indeno [1,2-b]indole derivatives as novel inhibitors of protein kinase CK2 and their use as tumor therapeutic agents, cytostatics and diagnostic aids” (Heinrich-Heine Universitat Dusseldof, priority 2006, dated 2012).

Legend:
[1] = biological target: T1, human CK2 protein kinase (holoenzyme) (Homo sapiens, UniProt P68400); test: Inhibition of recombinant human CK2 protein kinase (holoenzyme), radiometric filter assay with peptide […]; assay type: biochemical
T1 construct: made in house; host or cells: E. coli BL21(DE3), pT7-7 or bicistronic pET11d-CK2α, β
T1 sequence (P68400 whole entry): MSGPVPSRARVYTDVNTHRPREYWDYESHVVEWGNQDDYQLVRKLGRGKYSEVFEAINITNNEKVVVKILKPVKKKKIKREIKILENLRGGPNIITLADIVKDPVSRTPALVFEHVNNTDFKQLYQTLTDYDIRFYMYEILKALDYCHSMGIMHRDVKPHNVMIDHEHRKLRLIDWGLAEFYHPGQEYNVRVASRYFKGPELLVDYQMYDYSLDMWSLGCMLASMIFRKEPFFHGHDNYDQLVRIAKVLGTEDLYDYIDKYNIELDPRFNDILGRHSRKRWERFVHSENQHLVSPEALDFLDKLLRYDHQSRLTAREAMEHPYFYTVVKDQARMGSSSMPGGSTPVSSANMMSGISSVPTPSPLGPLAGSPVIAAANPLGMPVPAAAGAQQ
T1 sequence (P67870 whole entry partner): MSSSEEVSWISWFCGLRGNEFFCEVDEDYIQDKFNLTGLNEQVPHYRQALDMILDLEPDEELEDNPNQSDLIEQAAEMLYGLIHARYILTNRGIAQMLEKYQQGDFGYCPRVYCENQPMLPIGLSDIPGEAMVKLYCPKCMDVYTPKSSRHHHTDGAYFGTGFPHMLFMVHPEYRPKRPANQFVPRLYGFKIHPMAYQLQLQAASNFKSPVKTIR

DAN-G = test: Proliferation of tumor cell lines (Bracht et al.); assay type: cell-based; conditions: read-out: IC50 (μM) Mean, inhibition of cell proliferation
[2] = biological target: T2, CK2-alpha1 (catalytic subunit of CK2) (Homo sapiens, UniProt P68400); test: Radiometric protein kinase assay (33PanQinase Activity Assay); assay type: biochemical; conditions: 1 μM ATP, substrate casein
T2 construct: made in house; host or cells: Sf9 insect cells, baculovirus
T2 sequence (P68400 whole entry): as the sequence (P68400 whole entry) above

O=c1ccc(=O)c2c1c1c(=O)c3ccccc3c1n2Cc1ccccc1 [Compound 6c, 5-Benzyl 5,6,9,10-tetrahydroindeno[1,2-b]indole-6,9,10-trione]
inhibition at 10 µM ([1]; 10 μM compound, DMSO control = 100% CK2 activity, at least three independent experiments): 60%
IC50 ([1]; concentration range 30 μM to 0.01 μM, 100 μM ATP in assay buffer): 1490 nM
IC50 (DAN-G): > 20 µM
IC50 [2]: > 10 µM
